30 molecules from patent US9290453B2 (Merck Sharp & Dohme Corp., priority 2010, dated 2016) can be followed below.

For orientation: Ki means the dissociation constant of the complex between target and ligand, obtained from inhibition or displacement.

The target in the first assay is T1, hCRTH2 (Homo sapiens, UniProt Q9Y5Y4).
T1 construct: expressed in transfected cells; host or cells: HEK (human embryonic kidney) cells expressing hCRTH2
T1 sequence (Q9Y5Y4 1-395): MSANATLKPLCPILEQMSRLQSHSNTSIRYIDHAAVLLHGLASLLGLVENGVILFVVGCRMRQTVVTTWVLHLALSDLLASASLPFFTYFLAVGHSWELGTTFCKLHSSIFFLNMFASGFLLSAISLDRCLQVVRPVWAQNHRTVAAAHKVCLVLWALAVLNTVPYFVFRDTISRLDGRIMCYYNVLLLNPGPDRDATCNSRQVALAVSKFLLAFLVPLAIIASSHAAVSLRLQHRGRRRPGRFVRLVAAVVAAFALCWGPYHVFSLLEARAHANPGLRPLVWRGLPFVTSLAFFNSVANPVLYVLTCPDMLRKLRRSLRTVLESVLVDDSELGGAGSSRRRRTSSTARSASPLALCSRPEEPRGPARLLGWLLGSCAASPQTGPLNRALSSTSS
The assay can be described thus: Radioligand Binding Assay B (scintillation proximity assay, [3H]-PGD2, HEK-hCRTH2 membranes). To be noted: Radioligand Binding Assay B (SPA), values in text. As to the method:
Radioligand binding also was performed using scintillation proximity assay (SPA) technology in a similar way as described above in Radioligand Binding Assay A with minor modification. Assays were done at room temperature in 10 mM HEPES pH 7.4, 1 mM EDTA containing 2 mM MnCl2 and 16 nM [^3H]-PGD2 (PerkinElmer, Waltham, Mass.) (164 Ci mmol^−1), in a final volume of 0.05 mL. Competing ligands were diluted in dimethylsulfoxide (Me2SO) and added using very low volumes (50 nL). The reaction was initiated by the addition of a mixture of 3.52 μg of membrane protein prepared from a human embryonic kidney (HEK)-hCRTH2 cell line adhered to 140 ug of wheatgerm agglutinin SPA beads (PerkinElmer). Total and non-specific binding were determined in the absence and the presence of 10 μM of a CRTH2 antagonist, respectively. The reaction was routinely conducted for 60 min at room temperature followed by centrifugation for 5 minutes at 1000 RPM. The radioactivity was measured with a TopCountNXT (PerkinElmer). Results determined using the SPA-based assay were similar to those from the filtration binding assay.
On the technique in general: Scintillation proximity formats need no separation of bound from free tracer.
With `O=C(O)CCCCc1cc2cc(C(=O)N[C@H]3CCOc4ccccc43)ccc2nc1-c1ccccc1` [Compound 1AL, (S)-5-(6-(chroman-4-ylcarbamoyl)-2-phenylquinolin-3-yl)pentanoic acid], the affinity corresponds to a Ki of 22.3 nM.
In the case of `O=C(O)CCCCc1cc2cc(C(=O)N3CCN(c4c(Cl)cncc4Cl)CC3)ccc2nc1-c1ccccc1` [Compound 1AY, 5-(6-(4-(3,5-dichloropyridin-4-yl)piperazine-1-carbonyl)-2-phenylquinolin-3-yl)pentanoic acid], the Ki is 14 nM.
`O=C(O)CCCCc1cc2cc(C(=O)N3CCN(c4ccccc4)CC3)ccc2nc1-c1ccc(F)cc1` [Compound 5AF, 5-(2-(4-fluorophenyl)-6-(4-phenylpiperazine-1-carbonyl)quinolin-3-yl)pentanoic acid] had a Ki of 11.6 nM.

Still in this assay, the particulars now being: Table B, Radioligand Binding Assay B (SPA), rated A-D.
Molecule `C[C@@H](NC(=O)c1ccc2nc(-c3ccccc3)c(CCCCC(=O)O)cc2c1)c1ccc(F)cc1` [Compound 1AH, (R)-5-(6-((1-(4-fluorophenyl)ethyl)carbamoyl)-2-phenylquinolin-3-yl)pentanoic acid] returned a Ki of 20.1 to 200 nM.
Same read-out and setting: for `O=C(O)CCCCc1cc2cc(C(=O)N3CC(c4cccc(F)c4)C3)ccc2nc1-c1ccccc1` [Compound 1AJ, 5-(6-(3-(3-fluorophenyl)azetidine-1-carbonyl)-2-phenylquinolin-3-yl)pentanoic acid] the value was 2.1 to 20 nM; for `CN(Cc1ccc(F)cc1)C(=O)c1ccc2nc(-c3ccccc3)c(CCCCC(=O)O)cc2c1` [Compound 1AK, 5-(6-((4-fluorobenzyl)(methyl)carbamoyl)-2-phenylquinolin-3-yl)pentanoic acid], 20.1 to 200 nM; for `O=C(O)CCCCc1cc2cc(C(=O)N[C@H]3CCOc4ccccc43)ccc2nc1-c1ccccc1` [Compound 1AL, (S)-5-(6-(chroman-4-ylcarbamoyl)-2-phenylquinolin-3-yl)pentanoic acid], 20.1 to 200 nM.
With `O=C(O)CCCCc1cc2cc(C(=O)N3CC[C@H](c4ccc(F)cc4)C3)ccc2nc1-c1ccccc1` [Compound 1AM, (R)-5-(6-(3-(4-fluorophenyl)pyrrolidine-1-carbonyl)-2-phenylquinolin-3-yl)pentanoic acid], the Ki is 20.1 to 200 nM.
Same read-out and setting: for `O=C(O)CCCCc1cc2cc(C(=O)N3CC[C@@H](c4ccc(F)cc4)C3)ccc2nc1-c1ccccc1` [Compound 1AN, (S)-5-(6-(3-(4-fluorophenyl)pyrrolidine-1-carbonyl)-2-phenylquinolin-3-yl)pentanoic acid] the value was 2.1 to 20 nM; for `CC1(C)CC(NC(=O)c2ccc3nc(-c4ccccc4)c(CCCCC(=O)O)cc3c2)c2ccccc2O1` (stereo not drawn) [Compound 1AP, 5-(6-((2,2-dimethylchroman-4-yl)carbamoyl)-2-phenylquinolin-3-yl)pentanoic acid], 20.1 to 200 nM.
On the same count and under the same terms, for `CC1(C)CCC(NC(=O)c2ccc3nc(-c4ccccc4)c(CCCCC(=O)O)cc3c2)c2ccccc21` (stereo not drawn) [Compound 1AQ, 5-(6-((4,4-dimethyl-1,2,3,4-tetrahydronaphthalen-1-yl)carbamoyl)-2-phenylquinolin-3-yl)pentanoic acid] the value was 2.1 to 20 nM; for `N#CC1(c2ccccc2)CCN(C(=O)c2ccc3nc(-c4ccccc4)c(CCCCC(=O)O)cc3c2)C1` (stereo not drawn) [Compound 1AR, 5-(6-(3-cyano-3-phenylpyrrolidine-1-carbonyl)-2-phenylquinolin-3-yl)pentanoic acid], 2.1 to 20 nM; for `O=C(O)CCCCc1cc2cc(C(=O)NC3CC(=O)Nc4ccccc43)ccc2nc1-c1ccccc1` (stereo not drawn) [Compound 1AS, 5-(6-((2-oxo-1,2,3,4-tetrahydroquinolin-4-yl)carbamoyl)-2-phenylquinolin-3-yl)pentanoic acid], 2.1 to 20 nM.
Same read-out and setting: for `CC(C)(NC(=O)c1ccc2nc(-c3ccccc3)c(CCCCC(=O)O)cc2c1)c1ccc(F)cc1` [Compound 1AT, 5-(6-((2-(4-fluorophenyl)propan-2-yl)carbamoyl)-2-phenylquinolin-3-yl)pentanoic acid] the value was 20.1 to 200 nM.
Consider `O=C(O)CCCCc1cc2cc(C(=O)N3CCC(n4c(=O)[nH]c5ccccc54)CC3)ccc2nc1-c1ccccc1` [Compound 1AU, 5-(6-(4-(2-oxo-2,3-dihydro-1H-benzo[d]imidazol-1-yl)piperidine-1-carbonyl)-2-phenylquinolin-3-yl)pentanoic acid], for which the Ki was in the range of 20.1 to 200 nM.
Molecule `O=C(O)CCCCc1cc2cc(C(=O)N3CCC4(CC3)OCc3ccccc34)ccc2nc1-c1ccccc1` [Compound 1AV, 5-(2-phenyl-6-(3H-spiro[isobenzofuran-1,4′-piperidin]-1′-ylcarbonyl)quinolin-3-yl)pentanoic acid] came in with a Ki of 2.1 to 20 nM.
Turning to `O=C(O)CCCCc1cc2cc(C(=O)N3CCN(c4ccccn4)CC3)ccc2nc1-c1ccccc1` [Compound 1AW, 5-(2-phenyl-6-(4-(pyridin-2-yl)piperazine-1-carbonyl)quinolin-3-yl)pentanoic acid], the Ki is 20.1 to 200 nM.
Still for that read-out and setting: for `N#Cc1cccnc1N1CCN(C(=O)c2ccc3nc(-c4ccccc4)c(CCCCC(=O)O)cc3c2)CC1` [Compound 1AX, 5-(6-(4-(3-cyanopyridin-2-yl)piperazine-1-carbonyl)-2-phenylquinolin-3-yl)pentanoic acid] the value was 20.1 to 200 nM; for `O=C(O)CCCCc1cc2cc(C(=O)N3CCN(c4c(Cl)cncc4Cl)CC3)ccc2nc1-c1ccccc1` [Compound 1AY, 5-(6-(4-(3,5-dichloropyridin-4-yl)piperazine-1-carbonyl)-2-phenylquinolin-3-yl)pentanoic acid], 2.1 to 20 nM.
The same measure, in the same setting: the result for `N#Cc1ccccc1N1CCN(C(=O)c2ccc3nc(-c4ccccc4)c(CCCCC(=O)O)cc3c2)CC1` [Compound 1AZ, 5-(6-(4-(2-cyanophenyl)piperazine-1-carbonyl)-2-phenylquinolin-3-yl)pentanoic acid] reads 2.1 to 20 nM; that for `O=C(O)CCCCc1cc2cc(C(=O)N3CCN(c4ccccc4)CC3)ccc2nc1-c1ccccc1` [Compound 1Ai, 5-(2-phenyl-6-(4-phenylpiperazine-1-carbonyl)quinolin-3-yl)pentanoic acid], 2.1 to 20 nM.
The same measure, in the same setting: the result for `O=C(O)CCCCc1cc2cc(C(=O)N[C@H]3COc4ccccc43)ccc2nc1-c1ccccc1` [Compound 1Ao, (R)-5-(6-((2,3-dihydrobenzofuran-3-yl)carbamoyl)-2-phenylquinolin-3-yl)pentanoic acid] reads 20.1 to 200 nM.
As to `O=C(O)CCCCc1cc2cc(C(=O)N3CCN(c4ccccc4Cl)CC3)ccc2nc1-c1ccccc1` [Compound 1BA, 5-(6-(4-(2-chlorophenyl)piperazine-1-carbonyl)-2-phenylquinolin-3-yl)pentanoic acid], the Ki lay within 2.1 to 20 nM.
Molecule `Cc1ccccc1N1CCN(C(=O)c2ccc3nc(-c4ccccc4)c(CCCCC(=O)O)cc3c2)CC1` [Compound 1BB, 5-(2-phenyl-6-(4-(o-tolyl)piperazine-1-carbonyl)quinolin-3-yl)pentanoic acid] displayed a Ki of 2.1 to 20 nM.
On the same count and under the same terms, for `Cc1cccc(N2CCN(C(=O)c3ccc4nc(-c5ccccc5)c(CCCCC(=O)O)cc4c3)CC2)c1` [Compound 1BC, 5-(2-phenyl-6-(4-(m-tolyl)piperazine-1-carbonyl)quinolin-3-yl)pentanoic acid] the value was 2.1 to 20 nM.
The same measure, in the same setting: the result for `COc1ccc(N2CCN(C(=O)c3ccc4nc(-c5ccccc5)c(CCCCC(=O)O)cc4c3)CC2)cc1` [Compound 1BD, 5-(6-(4-(4-methoxyphenyl)piperazine-1-carbonyl)-2-phenylquinolin-3-yl)pentanoic acid] reads 2.1 to 20 nM.
Same read-out and setting: the result for `O=C(O)CCCCc1cc2cc(C(=O)N[C@@H]3CCOc4ccccc43)ccc2nc1-c1ccc(F)cc1` [Compound 5AD, (R)-5-(6-(chroman-4-ylcarbamoyl)-2-(4-fluorophenyl)quinolin-3-yl)pentanoic acid] reads 2.1 to 20 nM; that for `O=C(O)CCCCc1cc2cc(C(=O)N[C@@H]3CCCc4cc(F)ccc43)ccc2nc1-c1ccc(F)cc1` [Compound 5AE, (R)-5-(6-((6-fluoro-1,2,3,4-tetrahydronaphthalen-1-yl)carbamoyl)-2-(4-fluorophenyl)quinolin-3-yl)pentanoic acid], 2.1 to 20 nM; that for `O=C(O)CCCCc1cc2cc(C(=O)N3CCN(c4ccccc4)CC3)ccc2nc1-c1ccc(F)cc1` [Compound 5AF, 5-(2-(4-fluorophenyl)-6-(4-phenylpiperazine-1-carbonyl)quinolin-3-yl)pentanoic acid], 2.1 to 20 nM.
The molecule `O=C(O)CCCCc1cc2cc(C(=O)N3CC(c4cccc(F)c4)C3)ccc2nc1-c1ccc(F)cc1` [Compound 5AG, 5-(2-(4-fluorophenyl)-6-(3-(3-fluorophenyl)azetidine-1-carbonyl)quinolin-3-yl)pentanoic acid] returned a Ki of 20.1 to 200 nM.
Still for that read-out and setting: for `O=C(O)CCCCc1cc2cc(C(=O)N3CC[C@@H](c4ccccc4)C3)ccc2nc1-c1ccc(F)cc1` [Compound 5AH, (S)-5-(2-(4-fluorophenyl)-6-(3-phenylpyrrolidine-1-carbonyl)quinolin-3-yl)pentanoic acid] the value was 2.1 to 20 nM; for `CC1(C)CC(NC(=O)c2ccc3nc(-c4ccc(F)cc4)c(CCCCC(=O)O)cc3c2)c2ccccc2O1` (stereo not drawn) [Compound 5AJ, 5-(6-((2,2-dimethylchroman-4-yl)carbamoyl)-2-(4-fluorophenyl)quinolin-3-yl)pentanoic acid], 2.1 to 20 nM.
Still for that read-out and setting: the result for `CC1(C)CCC(NC(=O)c2ccc3nc(-c4ccc(F)cc4)c(CCCCC(=O)O)cc3c2)c2ccccc21` (stereo not drawn) [Compound 5AK, 5-(6-((4,4-dimethyl-1,2,3,4-tetrahydronaphthalen-1-yl)carbamoyl)-2-(4-fluorophenyl)quinolin-3-yl)pentanoic acid] reads 2.1 to 20 nM.
